Legend:
Assay in all cases: cells
[1] = test system: U-266; assay type: functional, cell-based, Homo sapiens; settings: Homo sapiens, U-266
Description: SANGER: Inhibition of human U-266 cell growth in a cell viability assay.

[2] = test system: ES8; assay type: functional, cell-based, Homo sapiens; settings: Homo sapiens, ES8;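 note: growth inhibition of human ES8 cells, read out with a cell viability assay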
Description: SANGER: Inhibition of human ES8 cell growth in a cell viability assay.

[3] = test system: LU-134-A; assay type: functional, cell-based, Homo sapiens; settings: Homo sapiens, LU-134-A
Description: SANGER: Inhibition of human LU-134-A cell growth in a cell viability assay.

[4] = test system: NCI-H1838; assay type: functional, cell-based, Homo sapiens; settings: Homo sapiens, NCI-H1838;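 note: growth inhibition of NCI-H1838 cells, determined with a cell viability readout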
Description: SANGER: Inhibition of human NCI-H1838 cell growth in a cell viability assay.

[5] = test system: SH-4; assay type: functional, cell-based; settings: Homo sapiens;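 note: growth inhibition of SH-4 cells, read out with a cell viability assay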
Description: SANGER: Inhibition of human SH-4 cell growth in a cell viability assay.

[6] = test system: JVM-3; assay type: functional, cell-based, Homo sapiens; settings: Homo sapiens, JVM-3;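 note: growth inhibition of human JVM-3 cells, read out with a cell viability assay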
Description: SANGER: Inhibition of human JVM-3 cell growth in a cell viability assay.

[7] = test system: D283 Med; assay type: functional, cell-based, Homo sapiens; settings: Homo sapiens, D283 Med
Description: SANGER: Inhibition of human D-283MED cell growth in a cell viability assay.

[8] = test system: TK-10; assay type: functional, cell-based, Homo sapiens; settings: Homo sapiens, TK-10;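 note: growth inhibition of TK-10 cells, read out in a cell viability assay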
Description: SANGER: Inhibition of human TK10 cell growth in a cell viability assay.

[9] = test system: MMAC-SF; assay type: functional, cell-based; settings: Homo sapiens;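 note: growth inhibition of human MMAC-SF cells, read out with a cell viability assay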
Description: SANGER: Inhibition of human MMAC-SF cell growth in a cell viability assay.

[10] = test system: NOS-1; assay type: functional, cell-based, Homo sapiens; settings: Homo sapiens, NOS-1;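 note: growth inhibition of the human NOS-1 cell line, read out with a cell viability assay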
Description: SANGER: Inhibition of human NOS-1 cell growth in a cell viability assay.

[11] = test system: NCI-H69; assay type: functional, cell-based, Homo sapiens; settings: Homo sapiens, NCI-H69;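 note: growth inhibition of the cell line, read out with a cell viability assay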
Description: SANGER: Inhibition of human NCI-H69 cell growth in a cell viability assay.

[12] = test system: MS-1; assay type: functional, cell-based, Homo sapiens; settings: Homo sapiens, MS-1;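 note: growth inhibition of MS-1 cells, read out by cell viability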
Description: SANGER: Inhibition of human MS-1 cell growth in a cell viability assay.

[13] = test system: LC-2-ad; assay type: functional, cell-based, Homo sapiens; settings: Homo sapiens, LC-2-ad;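 note: growth inhibition of human LC-2-ad cells, read out with a cell viability assay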
Description: SANGER: Inhibition of human LC-2-ad cell growth in a cell viability assay.

[14] = test system: GR-ST; assay type: functional, cell-based, Homo sapiens; settings: Homo sapiens, GR-ST
Description: SANGER: Inhibition of human GR-ST cell growth in a cell viability assay.

[15] = test system: 8-MG-BA; assay type: functional, cell-based, Homo sapiens; settings: Homo sapiens, 8-MG-BA;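 note: growth inhibition of 8-MG-BA cells, read out with a cell viability assay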
Description: SANGER: Inhibition of human 8-MG-BA cell growth in a cell viability assay.

[16] = test system: SJSA-1; assay type: functional, cell-based, Homo sapiens; settings: Homo sapiens, SJSA-1;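 note: growth inhibition of human SJSA-1 cells, read out through a cell viability measurement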
Description: SANGER: Inhibition of human SJSA-1 cell growth in a cell viability assay.

[17] = test system: EOL1; assay type: functional, cell-based, Homo sapiens; settings: Homo sapiens, EOL1;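 note: growth inhibition of EoL-1 cells, read out by a cell viability assay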
Description: SANGER: Inhibition of human EoL-1-cell cell growth in a cell viability assay.

[18] = test system: KNS-42; assay type: functional, cell-based; settings: Homo sapiens;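 note: growth inhibition of KNS-42 cells, read out with a cell viability assay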
Description: SANGER: Inhibition of human KNS-42 cell growth in a cell viability assay.

[19] = test system: HCE-T; assay type: functional, cell-based, Homo sapiens; settings: Homo sapiens, HCE-T;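 note: cell viability assay read-out, reporting inhibition of HCE-T cell growth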
Description: SANGER: Inhibition of human HCE-T cell growth in a cell viability assay.

[20] = test system: NB6; assay type: functional, cell-based, Homo sapiens; settings: Homo sapiens, NB6;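 note: growth inhibition of NB6 cells, read out by a cell viability assay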
Description: SANGER: Inhibition of human NB6 cell growth in a cell viability assay.

[21] = test system: NMC-G1; assay type: functional, cell-based, Homo sapiens; settings: Homo sapiens, NMC-G1;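 note: growth inhibition of the NMC-G1 cell line, measured with a cell viability read-out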
Description: SANGER: Inhibition of human NMC-G1 cell growth in a cell viability assay.

[22] = test system: SK-MEL-2; assay type: functional, cell-based, Homo sapiens; settings: Homo sapiens, SK-MEL-2;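 note: growth inhibition of human SK-MEL-2 cells measured with a cell viability assay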
Description: SANGER: Inhibition of human SK-MEL-2 cell growth in a cell viability assay.

[23] = test system: HCE-4; assay type: functional, cell-based; settings: Homo sapiens;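 note: cell viability assay measuring inhibition of growth in the human HCE-4 cell line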
Description: SANGER: Inhibition of human HCE-4 cell growth in a cell viability assay.

[24] = test system: CTV-1; assay type: functional, cell-based, Homo sapiens; settings: Homo sapiens, CTV-1;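 note: growth inhibition of the cell line, read out with a cell viability assay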
Description: SANGER: Inhibition of human CTV-1 cell growth in a cell viability assay.

[25] = test system: LNCaP-Clone-FGC; assay type: functional, cell-based, Homo sapiens; settings: Homo sapiens, LNCaP-Clone-FGC
Description: SANGER: Inhibition of human LNCaP-Clone-FGC cell growth in a cell viability assay.

[26] = test system: LAMA-84; assay type: functional, cell-based, Homo sapiens; settings: Homo sapiens, LAMA-84;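 note: growth inhibition of LAMA-84 cells, read out with a cell viability assay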
Description: SANGER: Inhibition of human LAMA-84 cell growth in a cell viability assay.

[27] = test system: KY821; assay type: functional, cell-based, Homo sapiens; settings: Homo sapiens, KY821;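 note: growth inhibition of human KY821 cells, read out by a cell viability assay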
Description: SANGER: Inhibition of human KY821 cell growth in a cell viability assay.

[28] = test system: 697; assay type: functional, cell-based, Homo sapiens; settings: Homo sapiens
Description: SANGER: Inhibition of human 697 cell growth in a cell viability assay.

[29] = test system: K5; assay type: functional, cell-based, Homo sapiens; settings: Homo sapiens, K5
Description: SANGER: Inhibition of human K5 cell growth in a cell viability assay.

[30] = test system: NCI-H526; assay type: functional, cell-based, Homo sapiens; settings: Homo sapiens, NCI-H526;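 note: growth inhibition of the human NCI-H526 cell line, measured by a cell viability assay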
Description: SANGER: Inhibition of human NCI-H526 cell growth in a cell viability assay.

[31] = test system: CAS-1; assay type: functional, cell-based, Homo sapiens; settings: Homo sapiens, CAS-1;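 note: growth inhibition of CAS-1 cells, measured with a cell viability assay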
Description: SANGER: Inhibition of human CAS-1 cell growth in a cell viability assay.

[32] = test system: CCRF-CEM; assay type: functional, cell-based, Homo sapiens; settings: Homo sapiens, CCRF-CEM;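 note: inhibition of CCRF-CEM cell growth, measured by a cell viability assay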
Description: SANGER: Inhibition of human CCRF-CEM cell growth in a cell viability assay.

[33] = test system: GI-ME-N; assay type: functional, cell-based, Homo sapiens; settings: Homo sapiens, GI-ME-N;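 note: growth inhibition of human GI-ME-N cells, read out with a cell viability assay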
Description: SANGER: Inhibition of human GI-ME-N cell growth in a cell viability assay.

[34] = test system: MZ7-mel; assay type: functional, cell-based, Homo sapiens; settings: Homo sapiens, MZ7-mel;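 note: growth inhibition of human MZ7-mel cells, measured by a cell viability assay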
Description: SANGER: Inhibition of human MZ7-mel cell growth in a cell viability assay.

[35] = test system: GB-1; assay type: functional, cell-based, Homo sapiens; settings: Homo sapiens, GB-1;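 note: growth of GB-1 cells judged by a viability assay, IC50 marks the concentration inhibiting growth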
Description: SANGER: Inhibition of human GB-1 cell growth in a cell viability assay.

[36] = test system: KG-1; assay type: functional, cell-based, Homo sapiens; settings: Homo sapiens, KG-1;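 note: growth inhibition of KG-1 cells, read out by a cell viability assay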
Description: SANGER: Inhibition of human KG-1 cell growth in a cell viability assay.

[37] = test system: NB13; assay type: functional, cell-based, Homo sapiens; settings: Homo sapiens, NB13;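 note: cell viability readout measuring growth inhibition of human NB13 cells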
Description: SANGER: Inhibition of human NB13 cell growth in a cell viability assay.

[38] = test system: A101D; assay type: functional, cell-based, Homo sapiens; settings: Homo sapiens, A101D;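 note: growth inhibition of the cell line, measured with a viability assay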
Description: SANGER: Inhibition of human A101D cell growth in a cell viability assay.

[39] = test system: LU-139; assay type: functional, cell-based, Homo sapiens; settings: Homo sapiens, LU-139
Description: SANGER: Inhibition of human LU-139 cell growth in a cell viability assay.

[40] = test system: KGN; assay type: functional, cell-based, Homo sapiens; settings: Homo sapiens, KGN;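 note: growth inhibition of KGN cells, read out with a cell viability assay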
Description: SANGER: Inhibition of human KGN cell growth in a cell viability assay.

[41] = test system: MHH-PREB-1; assay type: functional, cell-based, Homo sapiens; settings: Homo sapiens, MHH-PREB-1;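 note: cell viability assay measuring inhibition of proliferation of human MHH-PREB-1 cells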
Description: SANGER: Inhibition of human MHH-PREB-1 cell growth in a cell viability assay.

[42] = test system: SW684; assay type: functional, cell-based, Homo sapiens; settings: Homo sapiens, SW684; read-out: IC50;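 note: growth inhibition of human SW684 cells, measured by a cell viability assay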
Description: SANGER: Inhibition of human SW684 cell growth in a cell viability assay.

[43] = test system: HD-MY-Z; assay type: functional, cell-based, Homo sapiens; settings: Homo sapiens, HD-MY-Z;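 note: growth inhibition of HD-MY-Z cells, read out with a cell viability assay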
Description: SANGER: Inhibition of human HD-MY-Z cell growth in a cell viability assay.

[44] = test system: NCI-H1092; assay type: functional, cell-based, Homo sapiens; settings: Homo sapiens, NCI-H1092;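 note: cell growth inhibition measured with a cell viability assay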
Description: SANGER: Inhibition of human NCI-H1092 cell growth in a cell viability assay.

[45] = test system: SF-126; assay type: functional, cell-based, Homo sapiens; settings: Homo sapiens, SF-126;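 note: growth inhibition of human SF126 cells, read out with a cell viability assay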
Description: SANGER: Inhibition of human SF126 cell growth in a cell viability assay.

[46] = test system: ONS-76; assay type: functional, cell-based, Homo sapiens; settings: Homo sapiens, ONS-76;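 note: growth inhibition of human ONS-76 cells, read out with a cell viability assay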
Description: SANGER: Inhibition of human ONS-76 cell growth in a cell viability assay.

[47] = test system: MN-60; assay type: functional, cell-based, Homo sapiens; settings: Homo sapiens, MN-60;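 note: growth inhibition of the MN-60 cell line, determined with a cell viability assay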
Description: SANGER: Inhibition of human MN-60 cell growth in a cell viability assay.

[48] = test system: KS-1; assay type: functional, cell-based; settings: Homo sapiens;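 note: growth inhibition of KS-1 cells, read out with a cell viability assay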
Description: SANGER: Inhibition of human KS-1 cell growth in a cell viability assay.

[49] = test system: TE-9; assay type: functional, cell-based, Homo sapiens; settings: Homo sapiens, TE-9;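 note: cell growth inhibition, measured with a cell viability readout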
Description: SANGER: Inhibition of human TE-9 cell growth in a cell viability assay.

[50] = test system: KURAMOCHI; assay type: functional, cell-based, Homo sapiens; settings: Homo sapiens, KURAMOCHI;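 note: growth inhibition of KURAMOCHI cells, read out with a cell viability assay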
Description: SANGER: Inhibition of human KURAMOCHI cell growth in a cell viability assay.

[51] = test system: VA-ES-BJ; assay type: functional, cell-based, Homo sapiens; settings: Homo sapiens, VA-ES-BJ;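 note: growth inhibition of the VA-ES-BJ cell line, read out by a cell viability assay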
Description: SANGER: Inhibition of human VA-ES-BJ cell growth in a cell viability assay.

Work on `COc1cc(N2CCC(N3CCN(C)CC3)CC2)ccc1Nc1ncc(Cl)c(Nc2ccccc2S(=O)(=O)C(C)C)n1` [TAE-684] yielded an IC50 [1] of 1740 nM, an IC50 [2] of 750 nM and an IC50 [3] of 839 nM. For the same molecule, the IC50 [4] was greater than 2000 nM, the IC50 [5] was greater than 2000 nM and the IC50 [6] was greater than 2000 nM. For the same molecule, the IC50 [7] was 1220 nM, the IC50 [8] was 1050 nM and the IC50 [9] was greater than 2000 nM. It also gave an IC50 [10] of 103 nM, an IC50 [11] of 1560 nM and an IC50 [12] greater than 2000 nM. The IC50 [13] was 197 nM, the IC50 [14] was 1390 nM and the IC50 [15] was greater than 2000 nM. It also gave an IC50 [16] of 637 nM, an IC50 [17] greater than 2000 nM and an IC50 [18] greater than 2000 nM. It also gave an IC50 [19] of 1090 nM, an IC50 [20] greater than 2000 nM and an IC50 [21] of 832 nM. It also gave an IC50 [22] greater than 2000 nM, an IC50 [23] of 1610 nM and an IC50 [24] of 556 nM. The IC50 [25] was greater than 2000 nM, the IC50 [26] was greater than 2000 nM and the IC50 [27] was greater than 2000 nM. For the same molecule, the IC50 [28] was 432 nM, the IC50 [29] was 1060 nM and the IC50 [30] was greater than 2000 nM. For the same molecule, the IC50 [31] was 1980 nM, the IC50 [32] was greater than 2000 nM and the IC50 [33] was 1250 nM. The IC50 [34] was greater than 2000 nM, the IC50 [35] was 389 nM and the IC50 [36] was 396 nM. The IC50 [37] was 1370 nM, the IC50 [38] was 1570 nM and the IC50 [39] was greater than 2000 nM. For the same molecule, the IC50 [40] was 662 nM, the IC50 [41] was greater than 2000 nM and the IC50 [42] was greater than 2000 nM. It also gave an IC50 [43] greater than 2000 nM, an IC50 [44] greater than 2000 nM and an IC50 [45] of 1120 nM. The IC50 [46] was greater than 2000 nM, the IC50 [47] was greater than 2000 nM and the IC50 [48] was 193 nM. For the same molecule, the IC50 [49] was 1110 nM, the IC50 [50] was 1700 nM and the IC50 [51] was greater than 2000 nM.

From ChEMBL document CHEMBL1201861, “Genomics of Drug Sensitity in Cancer screening data, Wellcome Trust Sanger Institute”
